Experimental data from patent US7632933B2, “Corticotropin releasing factor 2 receptor agonists” (priority 2002, dated 2009).
Ends that are not written are not given here.

Key:
CRF1R = target: T1, CRF1R (Homo sapiens, UniProt P34998); assay: CRF1R agonist activity (EC50 and Emax), called comparative CRF binding; assay type: cell-based; details: CRF1R; read-out: CRF1R EC50
T1 sequence (P34998 24-415): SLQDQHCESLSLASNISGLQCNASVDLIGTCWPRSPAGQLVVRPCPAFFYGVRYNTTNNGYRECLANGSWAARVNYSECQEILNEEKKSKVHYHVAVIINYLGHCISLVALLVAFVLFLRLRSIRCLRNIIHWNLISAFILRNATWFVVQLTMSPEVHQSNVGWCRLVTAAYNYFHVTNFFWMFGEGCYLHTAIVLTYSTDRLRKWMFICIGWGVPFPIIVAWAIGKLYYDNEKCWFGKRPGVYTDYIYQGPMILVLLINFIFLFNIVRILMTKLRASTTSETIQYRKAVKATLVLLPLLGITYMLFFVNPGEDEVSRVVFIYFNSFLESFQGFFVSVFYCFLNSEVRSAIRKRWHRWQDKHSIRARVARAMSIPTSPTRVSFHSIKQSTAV
Procedure, shortened: (§1)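 Agonism measured through CRE-linked reporter expression or lysate cAMP after peptide treatment of CRF1R- or CRF2R-expressing cells, compared against vehicle-treated cells; background from a co-expressed non-target CRFR is subtracted.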

CRF2R = target: T2, CRF2R (Homo sapiens, UniProt Q13324); assay: CRF2R agonist activity (EC50 and Emax), called comparative CRF binding; assay type: cell-based; details: CRF2R; read-out: CRF2R EC50
T2 sequence (Q13324 1-411): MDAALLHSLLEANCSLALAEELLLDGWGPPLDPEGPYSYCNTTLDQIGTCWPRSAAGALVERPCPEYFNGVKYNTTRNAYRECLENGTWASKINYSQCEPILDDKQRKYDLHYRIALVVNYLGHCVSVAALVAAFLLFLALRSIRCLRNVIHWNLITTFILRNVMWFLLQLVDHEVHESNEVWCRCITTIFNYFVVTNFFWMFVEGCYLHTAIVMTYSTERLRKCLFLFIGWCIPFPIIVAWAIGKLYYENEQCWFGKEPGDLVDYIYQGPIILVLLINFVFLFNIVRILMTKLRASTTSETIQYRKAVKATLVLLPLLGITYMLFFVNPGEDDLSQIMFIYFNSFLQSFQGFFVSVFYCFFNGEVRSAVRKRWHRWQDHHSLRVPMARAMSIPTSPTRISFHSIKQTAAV
Procedure, shortened: as §1

Row | Substance | EC50 (CRF1R) [nM] | EC50 (CRF2R) [nM]
1 | SQEPPISLDLPIHLLREVLEMTKADQLAQQAHSNRKLLDIA-NH2 [compound 94] | ≥ 100 | ≥ 100
2 | SQEPPISLDLPIQLLREVLEMTKADQLAQQAHSNRKLLDIA-NH2 [compound 100] | ≥ 100 | ≥ 100
3 | SQEPPISLDLPLGLLREVLEMTKADQLAQQAHSNRKLLDIA-NH2 [compound 90] | ≥ 100 | ≥ 100
4 | SQEPPISLDLPLHLLREVLEMTKADQLAQQAHSNRKLLDIA-NH2 [compound 102] | ≥ 100 | ≥ 100
5 | SQEPPISLDLPLQLLREVLEMTKADQLAQQAHSNRKLLDIA-NH2 [compound 95] | ≥ 100 | ≥ 100
6 | SQEPPISLDLPLYLLREVLEMTKADQLAQQAHSNRKLLDIA-NH2 [compound 101] | ≥ 100 | ≥ 100
7 | SQEPPISLDLPTELLREVLEMTKADQLAQQAHSNRKIIDIA-NH2 [compound 92] | ≥ 100 | ≥ 100
8 | SQEPPISLDLPTGLLREVLEMTKADQLAQQAHSNRKLLDIA-NH2 [compound 98] | ≥ 100 | ≥ 100
9 | SQEPPISLDLPTHLLREVLEMTKADQLAQQAHSNRKLLDIA-NH2 [compound 99] | ≥ 100 | ≥ 100
10 | SQEPPISLDLPTQLLREVLEMTKADQLAQQAHSNRKLLDIA-NH2 [compound 105] | ≥ 100 | ≥ 100
11 | SQEPPISLDLPTYLLREVLEMTKADQLAQQAHSNRKLLDIA-NH2 [compound 106] | ≥ 100 | ≥ 100
12 | SQEPPISLDLTFGLLREVLEMTKADQLAQQAHSNRKLLDIA-NH2 [compound 88] | ≥ 100 | ≥ 100
13 | SQEPPISLDLTIGLLREVLEMTKADQLAQQAHSNRKLLDIA-NH2 [compound 86] | ≥ 100 | ≥ 100
14 | SQEPPISLDLTIHLLREVLEMTKADQLAQQAHSNRKLLDIA-NH2 [compound 87] | ≥ 100 | ≥ 100
